{"source": "patent US20060167115A1", "about": "“Compositions for the preservation of timber” (priority 2003, published 2006)", "key": {"Coniophora puteana": {"system": "Coniophora puteana", "experiment": "Biological screening test (modified EN 113) of TBBA homologues", "type": "cell-based", "settings": "8 weeks exposure; for Protective Effect (retention of the active ingredient in the wood): waterborne", "protocol": "(§1) The following fungi were employed: Coniophora puteana (Brown rot fungus) and Poria placenta (Brown rot fungus). The following preservatives were tested: TBBF (waterborne), TBBE (waterborne), TBBZ (waterborne) and TBBS (waterborne).\n(§2) Five concentrations of each preservative were tested: 3.0%, 2.0%, 1.0%, 0.1% and 0.05% (w/w). All wood blocks were of Scots pine sapwood (Pinus sylvestris) with a volume of 1 cm^3 (10 mm×10 mm×10 mm). Five replicates were used for each test specimen type and six virulence control specimens for each fungus and for each preservative were used as follows: • Treated test specimens: 2 (fungi)×5 (preservative concentrations)×1 (preservative)×5 (replicates)=50 test blocks • Untreated test specimens (for exposure alongside […] test blocks): 2 (fungi)×5 (preservative concentrations)×1 (preservative)×5 (replicates)=50 test blocks • Treated check test specimens: 1 (preservative)×5 (concentrations)×5 (replicates)=25 blocks\n(§3) For all actives/preservatives in the test: • Virulence control specimens: 2 (fungi)×6 (replicates)=12 test blocks\n(§4) After block treatments were completed, all the blocks were sterilized using ionizing radiation according to the conditions set out in European standard EN 113. The incubation period for the test (length of block exposure to the chosen basidiomycete fungi) was 8 weeks.\n(§5) Weight changes for particular waterlogged specimens, when these were clearly unrepresentative of a group, were not included in the mean figures presented."}, "Poria placenta": {"system": "Poria placenta", "experiment": "Biological screening test (modified EN 113) of TBBA homologues", "type": "cell-based", "settings": "8 weeks exposure; for Protective Effect (retention of the active ingredient in the wood): waterborne", "protocol": "as §1, §2, §3, §4, §5"}, "[1]": {"settings": "TBBS waterborne 0.05% w/w, retention 0.4 kg/m^3"}, "[2]": {"settings": "TBBS waterborne 0.1% w/w, retention 0.8 kg/m^3"}, "[3]": {"settings": "TBBE waterborne 0.05% w/w, retention 0.4 kg/m^3"}, "[4]": {"settings": "TBBZ waterborne 0.05% w/w, retention 0.4 kg/m^3, some waterlogging"}, "[5]": {"settings": "TBBF waterborne 0.05% w/w, retention 0.4 kg/m^3"}}, "data": [{"smiles": "O=S(=O)(c1cc(Br)c(O)c(Br)c1)c1cc(Br)c(O)c(Br)c1", "note": "[TBBS, 4,4′-Sulfonyldi(2,6-dibromophenol)]", "values": [{"measurement": "Corrected mean loss in mass (%)", "setting": "Coniophora puteana; [1]", "result": "35.02 (6.61) %"}, {"measurement": "Corrected mean loss in mass (%)", "setting": "Coniophora puteana; [2]", "result": "35.49 (4.92) %"}, {"measurement": "Corrected mean loss in mass (%)", "setting": "Coniophora puteana; TBBS waterborne 1.0% w/w, retention 7.6 kg/m^3", "result": "No Decay"}, {"measurement": "Corrected mean loss in mass (%)", "setting": "Coniophora puteana; TBBS waterborne 2.0% w/w, retention 16.1 kg/m^3", "result": "No Decay"}, {"measurement": "Corrected mean loss in mass (%)", "setting": "Coniophora puteana; TBBS waterborne 3.0% w/w, retention 20.2 kg/m^3", "result": "No Decay"}, {"measurement": "Protective Effect (retention of the active ingredient in the wood)", "setting": "Coniophora puteana", "result": "0.8-7.6 kg/m^3"}, {"measurement": "Corrected mean loss in mass (%)", "setting": "Poria placenta; [1]", "result": "No Decay"}, {"measurement": "Corrected mean loss in mass (%)", "setting": "Poria placenta; [2]", "result": "No Decay"}, {"measurement": "Corrected mean loss in mass (%)", "setting": "Poria placenta; TBBS waterborne 1.0% w/w, retention 7.9 kg/m^3", "result": "No Decay"}, {"measurement": "Corrected mean loss in mass (%)", "setting": "Poria placenta; TBBS waterborne 2.0% w/w, retention 15.3 kg/m^3", "result": "No Decay"}, {"measurement": "Corrected mean loss in mass (%)", "setting": "Poria placenta; TBBS waterborne 3.0% w/w, retention 25.0 kg/m^3", "result": "No Decay"}, {"measurement": "Protective Effect (retention of the active ingredient in the wood)", "setting": "Poria placenta", "result": "0.8-7.9 kg/m^3"}]}, {"smiles": "CC(c1cc(Br)c(O)c(Br)c1)c1cc(Br)c(O)c(Br)c1", "note": "[TBBE, 4,4′-Ethylidenebis(2,6-dibromophenol)]", "values": [{"measurement": "Corrected mean loss in mass (%)", "setting": "Coniophora puteana; [3]", "result": "22.96 (4.81) %"}, {"measurement": "Corrected mean loss in mass (%)", "setting": "Coniophora puteana; TBBE waterborne 0.1% w/w, retention 0.7 kg/m^3", "result": "26.57 (2.99) %"}, {"measurement": "Corrected mean loss in mass (%)", "setting": "Coniophora puteana; TBBE waterborne 1.0% w/w, retention 7.9 kg/m^3", "result": "No Decay"}, {"measurement": "Corrected mean loss in mass (%)", "setting": "Coniophora puteana; TBBE waterborne 2.0% w/w, retention 14.7 kg/m^3", "result": "No Decay"}, {"measurement": "Corrected mean loss in mass (%)", "setting": "Coniophora puteana; TBBE waterborne 3.0% w/w, retention 24.7 kg/m^3", "result": "No Decay"}, {"measurement": "Protective Effect (retention of the active ingredient in the wood)", "setting": "Coniophora puteana", "result": "0.7-7.9 kg/m^3"}, {"measurement": "Corrected mean loss in mass (%)", "setting": "Poria placenta; [3]", "result": "No Decay (0.89)"}, {"measurement": "Corrected mean loss in mass (%)", "setting": "Poria placenta; TBBE waterborne 0.1% w/w, retention 0.8 kg/m^3", "result": "28.67 (14.13) %"}, {"measurement": "Corrected mean loss in mass (%)", "setting": "Poria placenta; TBBE waterborne 1.0% w/w, retention 8.3 kg/m^3, some waterlogging", "result": "No Decay (W)"}, {"measurement": "Corrected mean loss in mass (%)", "setting": "Poria placenta; TBBE waterborne 2.0% w/w, retention 14.4 kg/m^3, some waterlogging", "result": "No Decay (W)"}, {"measurement": "Corrected mean loss in mass (%)", "setting": "Poria placenta; TBBE waterborne 3.0% w/w, retention 24.6 kg/m^3", "result": "No Decay"}, {"measurement": "Protective Effect (retention of the active ingredient in the wood)", "setting": "Poria placenta", "result": "0.8-8.3 kg/m^3"}]}, {"smiles": "Oc1c(Br)cc(C2(c3cc(Br)c(O)c(Br)c3)CCCCC2)cc1Br", "note": "[TBBZ, 4,4′-Cyclohexylidenebis(2,6-dibromophenol)]", "values": [{"measurement": "Corrected mean loss in mass (%)", "setting": "Coniophora puteana; [4]", "result": "33.57 (7.59) (W) %"}, {"measurement": "Corrected mean loss in mass (%)", "setting": "Coniophora puteana; TBBZ waterborne 1.0% w/w, retention 6.8 kg/m^3", "result": "14.30 (—) %"}, {"measurement": "Corrected mean loss in mass (%)", "setting": "Coniophora puteana; TBBZ waterborne 2.0% w/w, retention 11.8 kg/m^3", "result": "No Decay"}, {"measurement": "Corrected mean loss in mass (%)", "setting": "Coniophora puteana; TBBZ waterborne 3.0% w/w, retention 17.6 kg/m^3", "result": "No Decay"}, {"measurement": "Protective Effect (retention of the active ingredient in the wood)", "setting": "Coniophora puteana", "result": "0.7-6.8 kg/m^3"}, {"measurement": "Corrected mean loss in mass (%)", "setting": "Poria placenta; [4]", "result": "0.94 (3.19) (W) %"}, {"measurement": "Corrected mean loss in mass (%)", "setting": "Poria placenta; TBBZ waterborne 0.1% w/w, retention 0.8 kg/m^3", "result": "33.47 (15.74) %"}, {"measurement": "Corrected mean loss in mass (%)", "setting": "Poria placenta; TBBZ waterborne 1.0% w/w, retention 5.9 kg/m^3", "result": "No Decay"}, {"measurement": "Corrected mean loss in mass (%)", "setting": "Poria placenta; TBBZ waterborne 2.0% w/w, retention 11.6 kg/m^3", "result": "No Decay"}, {"measurement": "Corrected mean loss in mass (%)", "setting": "Poria placenta; TBBZ waterborne 3.0% w/w, retention 18.6 kg/m^3", "result": "No Decay"}, {"measurement": "Protective Effect (retention of the active ingredient in the wood)", "setting": "Poria placenta", "result": "0.8-5.9 kg/m^3"}]}, {"smiles": "Oc1c(Br)cc(Cc2cc(Br)c(O)c(Br)c2)cc1Br", "note": "[TBBF, Bis(4-hydroxy-3,5-dibromophenyl)methane]", "values": [{"measurement": "Corrected mean loss in mass (%)", "setting": "Coniophora puteana; [5]", "result": "26.87 (7.38) %"}, {"measurement": "Corrected mean loss in mass (%)", "setting": "Coniophora puteana; TBBF waterborne 0.1% w/w, retention 0.8 kg/m^3, some waterlogging", "result": "24.49 (2.12) (W) %"}, {"measurement": "Corrected mean loss in mass (%)", "setting": "Coniophora puteana; TBBF waterborne 1.0% w/w, retention 7.9 kg/m^3", "result": "No Decay"}, {"measurement": "Corrected mean loss in mass (%)", "setting": "Coniophora puteana; TBBF waterborne 2.0% w/w, retention 15.1 kg/m^3", "result": "No Decay"}, {"measurement": "Corrected mean loss in mass (%)", "setting": "Coniophora puteana; TBBF waterborne 3.0% w/w, retention 23.1 kg/m^3", "result": "No Decay"}, {"measurement": "Protective Effect (retention of the active ingredient in the wood)", "setting": "Coniophora puteana", "result": "0.8-7.9 kg/m^3"}, {"measurement": "Corrected mean loss in mass (%)", "setting": "Poria placenta; [5]", "result": "24.20 (9.63) %"}, {"measurement": "Corrected mean loss in mass (%)", "setting": "Poria placenta; TBBF waterborne 0.1% w/w, retention 0.8 kg/m^3", "result": "20.90 (0.23) %"}, {"measurement": "Corrected mean loss in mass (%)", "setting": "Poria placenta; TBBF waterborne 1.0% w/w, retention 7.7 kg/m^3", "result": "No Decay"}, {"measurement": "Corrected mean loss in mass (%)", "setting": "Poria placenta; TBBF waterborne 2.0% w/w, retention 15.7 kg/m^3", "result": "No Decay"}, {"measurement": "Corrected mean loss in mass (%)", "setting": "Poria placenta; TBBF waterborne 3.0% w/w, retention 20.8 kg/m^3", "result": "No Decay"}, {"measurement": "Protective Effect (retention of the active ingredient in the wood)", "setting": "Poria placenta", "result": "0.8-7.7 kg/m^3"}]}]}
